Experimental data: PMC5078989, “Targeted inhibition of the COP9 signalosome for treatment of cancer” (Nature Communications, 2016)

System: panel of cancer cell lines
Assay: Cell viability (CellTiter-Glo) dose-response across cancer cell line panel;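 also: after 72 h compound incubation with CellTiter-Glo ATP readout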
Format: cell-based, human
Conditions: Homo sapiens
Description: Next, we explored the effect of CSN5 inhibition on the viability of cancer cells. To obtain a comprehensive picture, we generated dose–response curves with a CSN5 inhibitor across more than 500 cancer cell lines in a previously described standardized setting[47] (Supplementary Data 1).
A standardized CellTiter-Glo Assay (Promega #G7570) based on the quantification of ATP was applied according to the manufacturer's protocol to measure the amount of viable cells in culture. In brief, cells were seeded into 384-well plates at optimal density for each cell line. After 4 h, compounds were added at different concentrations in growth medium and incubated for another 72 h in a humidifying chamber at 37 °C and 5% CO2. […] EC50 values were calculated from the plot of percentage of inhibition versus inhibitor concentration using the nonlinear regression analysis software Origin 7.5SR6 (OriginLab Corp.).

EC50 (HEC-50B): 0.2 µM | EC50 (HEC-108): 3.13 µM | EC50 (HEC-151): 1.28 µM | EC50 (HEC-251, HEC-251): 0.513 µM | EC50 (HEC-265): 0.807 µM | EC50 (HEL): 0.404 µM | EC50 (HEL 92.1.7, HEL 92.1.7): 0.491 µM | EC50 (HEY A8, Hey-A8): 1.99 µM | EC50 (HL-60, HL-60): 0.871 µM | EC50 (HLC-1): 3.33 µM | EC50 (HLE): 1.36 µM | EC50 (HLF): 0.697 µM | EC50 (HMC-1-8): 1.11 µM | EC50 (HPAC): 1.99 µM | EC50 (HPBALL, HPB-ALL): 1.02 µM | EC50 (HRT-18, HRT-18): 1.03 µM | EC50 (HSC-2, HSC-2): 0.892 µM | EC50 (HSC-3, HSC-3): 0.637 µM | EC50 (HSC-4, HSC-4): 1.05 µM | EC50 (HT-29, HT-29): 2.39 µM | EC50 (HT-1080, HT-1080): 0.407 µM | EC50 (Hep3B): 1.09 µM | EC50 (Hep 3B2.1-7): 1.8 µM | EC50 (Hs 294T): 1.95 µM | EC50 (Hs 695T): 0.7 µM | EC50 (Hs766T, Hs 766T): 10.8 µM | EC50 (Hs 852.T): 2.2 µM | EC50 (Hs 936.T): 1.54 µM | EC50 (Hs 944.T): 0.778 µM | EC50 (HuG1-N): 14 µM | EC50 (HuP-T3, HUP-T3): 0.349 µM | EC50 (Huh-7, HuH-7): 0.309 µM | EC50 (IGR-37, IGR-37): 4.04 µM | EC50 (IGR-39, IGR-39): 1.72 µM | EC50 (IGROV-1, IGROV1): 7.24 µM | EC50 (IPC-298, IPC-298): 1.23 µM | EC50 (IST-MES2): 0.609 µM | EC50 (Ishikawa): 1.55 µM | EC50 (J82, J82): 4.93 µM | EC50 (JHH7, JHH-7): 2.44 µM | EC50 (JHH-4, JHH-4): 0.388 µM | EC50 (JHOS-2): > 30 µM | EC50 (JHUEM-2): 0.912 µM | EC50 (JHUEM-3): > 30 µM | EC50 (JIMT-1, JIMT-1): 22.6 µM | EC50 (JL-1): 0.718 µM | EC50 (JU77): 0.857 µM | EC50 (JVM-2, JVM-2): 0.553 µM | EC50 (K029AX): 3.06 µM | EC50 (KARPAS-422, KARPAS-422): 1.75 µM | EC50 (KATO III): 9.81 µM | EC50 (KBM-7, KBM-7): 0.229 µM | EC50 (KCI-MOH1): 0.797 µM | EC50 (KE-97, KE-97): 0.547 µM | EC50 (KLE): 1.26 µM | EC50 (KM12, KM12): 3.47 µM | EC50 (KMM-1, KMM-1): 0.685 µM | EC50 (KMRC-1, KMRC-1): 1.89 µM | EC50 (KMRC-20): 0.788 µM | EC50 (KMS-11, KMS-11): 0.215 µM | EC50 (KNS-60): 6.14 µM | EC50 (KNS-62, KNS-62): 8.05 µM | EC50 (KO52): 0.861 µM | EC50 (KP-1N): 1.11 µM | EC50 (KP-1NL): > 30 µM | EC50 (KP-2): 0.942 µM | EC50 (KP-3): 1.89 µM | EC50 (KP-4, KP4): 1.21 µM | EC50 (KS-1): 9.04 µM | EC50 (KU-19-19, KU-19-19): 1.97 µM | EC50 (KURAMOCHI): 0.392 µM | EC50 (KYSE-30, KYSE-30): 1.7 µM | EC50 (KYSE-70, KYSE-70): 6.04 µM | EC50 (KYSE-150, KYSE-150): 13.4 µM | EC50 (KYSE-180, KYSE-180): 2.15 µM | EC50 (KYSE-410, KYSE-410): 11 µM | EC50 (Kasumi-3, Kasumi3): 0.39 µM | EC50 (Kasumi-6): 4.46 µM | EC50 (L3.3): 1.39 µM | EC50 (L-363, L-363): 0.251 µM | EC50 (L-428, L-428): 0.59 µM | EC50 (LC-1/sq-SF): 24 µM | EC50 (LC-1F): 6.99 µM | EC50 (LC-2-ad, LC2/ad): 3.57 µM | EC50 (LCLC-103H): 21.5 µM | EC50 (LIM1899): 0.884 µM | EC50 (LIM2099): 0.391 µM | EC50 (LIM2405): 2.38 µM | EC50 (LIM2550): 1.04 µM | EC50 (LMSU): 0.247 µM | EC50 (LN-18, LN-18): 0.708 µM | EC50 (LN-229, LN-229): 2.6 µM | EC50 (LO68): 3.37 µM | EC50 (LOU-NH91, LOU-NH91): 1.35 µM | EC50 (LOX IMVI): 0.952 µM | EC50 (LP-1, LP-1): 1.09 µM | EC50 (LS180, LS 180): 0.448 µM | EC50 (LUDLU-1, LUDLU-1): 3.41 µM | EC50 (Li-7, Li-7): 0.766 µM | EC50 (Lu-65, LU65): 0.558 µM | EC50 (Lu-99, LU99): 0.25 µM | EC50 (M-07e): 7.18 µM | EC50 (MCAS): 0.692 µM | EC50 (MCC13): 0.846 µM | EC50 (MCC14/2): 0.282 µM | EC50 (MCC26): 1.44 µM | EC50 (MDA-MB-134-VI): 0.694 µM | EC50 (MDA-MB-157, MDA-MB-157): 2.49 µM | EC50 (MDA-MB-175-VII): 3.51 µM | EC50 (MDA-MB-231, MDA-MB-231): 1.58 µM | EC50 (MDA-MB-435S): 4.47 µM | EC50 (MDA-MB-436, MDA-MB-436): 0.387 µM | EC50 (MDA-MB-453, MDA-MB-453): 7.12 µM | EC50 (MDA-MB-468, MDA-MB-468): 5.94 µM | EC50 (MDST8, MDST8): 1.39 µM | EC50 (ME-180, ME180): 0.63 µM | EC50 (MEC1, MEC-1): 0.517 µM | EC50 (MEL-HO): 10.5 µM | EC50 (MEL-JUSO): 11.2 µM | EC50 (MES-SA): 0.889 µM | EC50 (MFE-280, MFE-280): 5.45 µM | EC50 (MFE-296, MFE-296): 0.518 µM | EC50 (MFE-319): 11.1 µM | EC50 (MFM-223, MFM223): 0.769 µM | EC50 (MG-63, MG-63): 0.478 µM | EC50 (MIA PaCa-2, MIA PaCa-2): 1.81 µM | EC50 (MINO): 0.204 µM | EC50 (MKN-1, MKN1): 2.03 µM | EC50 (MKN-45, MKN-45): 1.71 µM | EC50 (ML-2, ML-2): 0.687 µM | EC50 (MM127): 0.508 µM | EC50 (MM138): 1.52 µM | EC50 (MM170): 11.4 µM | EC50 (MM370): 6.22 µM | EC50 (MM383): 1.19 µM | EC50 (MM386): 2.07 µM | EC50 (MM415): 1.37 µM | EC50 (MM426): 3.04 µM | EC50 (MM466): 2.25 µM | EC50 (MM473, MM473): 2.22 µM | EC50 (MM485): 0.521 µM | EC50 (MM537): 2.63 µM | EC50 (MM576): 7.15 µM | EC50 (MM603): 0.286 µM
SMILES: COCc1ccccc1NCc1ccc([C@H]2[C@@H](O)CCCc3cncn32)c(-c2ccccc2Cl)c1 [CSN5i-2, (5S,6S)-5-(2′-chloro-5-(((2-(methoxymethyl)phenyl)amino)methyl)-[1,1′-biphenyl]-2-yl)-6,7,8,9-tetrahydro-5H-imidazo[1,5-a]azepin-6-ol]
